The results in this text go back to paper PMC10901950, “Neuroprotective and Anti-inflammatory Effects of Rubiscolin-6 Analogs with Proline Surrogates in Position 2” (Neurochemical Research, 2023).

Series [1] relates to SH-SY5Y cells. Description: Neuroprotection in 6-OHDA-treated SH-SY5Y cells (MTT). In kind it is cell-based, human. The settings on record: 6-OHDA 100 µM, 24 h, vehicle 100.00 ± 4.60%. How it is done:
The neuroprotective experiments were performed in an in vitro model of a human neuroblastoma cell line (SH-SY5Y) obtained from the German Collection of Microorganisms and Cell Cultures GmbH (DSMZ) Bank (ACC 209). Cells were cultured in Dulbecco’s Modified Eagle’s Medium: Nutrient Mixture F12 (DMEM:F12) supplemented with 1% antibiotic/antimycotic (Amphotericin B, Penicillin and Streptomycin) (Biowest, Nuaillé, France) and 10% (v/v) Fetal Bovine Serum (FBS) (Biowest, Riverside, MO, USA). The anti-inflammatory experiments were performed in an in vitro model of mouse macrophage-like RAW 264.7 cells, purchased from American Type Culture Collection (ATCC, Manassas, VA, USA). Cells were maintained in DMEM medium (Gibco™, Grand Island, NY) and supplemented with 10% bovine calf serum (BCS) (Gibco™, Grand Island, NY) and 1% penicillin–streptomycin (Sigma-Aldrich, St. Louis, MO, USA). Cell cultures were kept at 37 °C in 5% CO2/humidified air.
Cells were incubated with peptides (0.1–10 µM) for 24 h to assess their cytotoxic activity. In the neuroprotective model, SH-SY5Y cells were exposed to 6-OHDA (100 µM) in the absence/presence of peptide at non-toxic concentrations (0.1–10 µM). When needed, a 30 min pre-incubation step with β-funaltrexamine (β-FNA, µ-opioid receptor antagonist, 10 µM), naltrindole (NLT, δ-opioid receptor antagonist, 10 µM), 2’-amino-3’-methoxyflavone (PD 98059, MAPK kinase 1 (MEK 1) inhibitor, 50 µM) or 2-(4-morpholinyl)-8-phenyl-4H-1-benzopyran-4-one (LY 294002, PI3-K inhibitor, 20 µM). Stimulation was terminated by aspiration of the medium and adding 100 µL MTT (1.2 mM) per well. Cells were incubated for 1 h at 37 °C. After this time, MTT was removed, and 100 µL DMSO was added. The resulting absorbance was read in a microplate reader (Biotek, Epoch/2 microplate reader, Winooski, VT, USA) at 570 nm.
Cell metabolic activity (cytotoxicity) was calculated as the percentage of the value obtained for cells incubated with compounds compared to control cells treated with the medium.

Series [2] deals with SH-SY5Y cells. Nature of the series: Intracellular ROS production in 6-OHDA-treated SH-SY5Y cells. It is filed as cell-based, human. The following applies: 6-OHDA 100 µM. The procedure: (§1) The detection of ROS generated in injured cells was evaluated using the 5(6)-carboxy-2ʹ,7ʹ-dichlorofluorescein diacetate (carboxy-H2DCFDA) reagent (Invitrogen, Bleiswijk, Netherlands). After incubation, cells were washed with ice-cold Phosphate-Buffer Saline (PBS). Then, the carboxyl-H2DCFDA (100 µL, 20 µM) reagent was added and incubated for 1 h at 37 °C. Finally, the fluorescence intensity was measured at wavelengths of […], and ROS levels were presented in percentage of control (non-treated cells).

The test system of series [3] is SH-SY5Y cells. Nature of the series: Mitochondrial membrane potential (JC-1) in 6-OHDA-treated SH-SY5Y cells. The following applies: 6-OHDA 100 µM, 6 h, JC-1. In kind it is cell-based, human. The procedure:
Mitochondrial function was assessed by monitoring changes in MMP (∆Ψm) using the fluorescent probe, JC-1 fluorescence dye (5,5′,6,6′-tetrachloro-1,1′,3,3′-tetraethyl-imidacarbocyanine iodide, Molecular Probes, T3168, Eugene, Oregon, USA). The assay was performed according to the method described by Silva et al.. Briefly, SH-SY5Y cells were exposed 6 h to 6-OHDA (100 μM) in the presence or absence of peptides. After incubation, cells were washed with ice-cold PBS, and then JC-1 reagent (3 µM, 200 µL) was added for 15 min at 37 °C. Afterwards, JC-1 was removed, and cells were washed with PBS. The formation of JC-1 aggregates (490 nm of excitation and 590 nm of emission) and the monomeric form of JC-1 (490 nm of excitation and 530 nm of emission) was accompanied simultaneously in the plate reader for 30 min. Results were expressed as the ratio of the monomers/aggregates of JC-1 in the percentage of control.

Series [4] has as its system AKT. Description: Western blot, AKT phosphorylation in 6-OHDA-treated SH-SY5Y cells. It is filed as cell-based, human. The following applies: peptide 10 µM, 2.5-10 min, 6-OHDA 100 µM treated cells. How it is done: The neuroblastoma SH-SY5Y cells were grown in a 6-well plate and when 80–90% confluent treated with 6-OHDA (100 µM) for 24 h. Then cells were stimulated with peptides for 2.5, 5, 7.5 and 10 min (for AKT) or 24 h (for mTOR). When needed, a 30 min pre-incubation step with LY 294002 was included before analogs and 6-OHDA addition. Stimulation was terminated by aspiration of the medium. Cells were washed 2 times with ice-cold PBS, and then 200 µL of ice-cold lysis buffer [150 mM NaCl, 20 mM Tris–HCl, glycerol, 5 mM EDTA, 0.5 mM phenylmethylsulphonylfluoride (PMSF), 10% Triton X-100, 100 mM protease inhibitors, pH 7.4] was added. Cells were incubated on ice for 15 min. Lysates were then centrifuged at 12,000×g for 10 min at 4 °C, and the supernatants were used as the total cell lysates. The protein content in the supernatants was quantified using the Bio-Rad protein assay kit. Equal amounts of protein were separated on 10% sodium dodecyl sulfate (SDS)-polyacrylamide gels and transferred to polyvinylidene difluoride membranes from (PVDF, Millipore, Cork, Ireland). Non-specific binding was blocked with tris-buffered saline Tween-20 (TBS-T: 150 mM NaCl, 20 mM Tris–HCl, 0.1% Tween 20, pH 7.5) containing 5% nonfat milk for 2 h at room temperature. Then, the membrane was incubated overnight at 4 °C with one of the following specific primary antibodies: Vinculin (1:1000 dilution; Cell Signalling Technology, Danvers, MA, USA), p-AKT (1:1000 dilution; Cell Signalling Technology, Danvers, MA, USA), AKT (1:1000 dilution; Cell Signalling Technology, Danvers, MA, USA), p-mTOR (1:1000 dilution; Cell Signalling Technology, Danvers, MA, USA), mTOR (1:1000 dilution; Cell Signalling Technology, Danvers, MA, USA). After incubation, membranes were washed six times per 5 min with TBS-T. In the next step, membranes were incubated with HRP-conjugated secondary antibodies (1:1000 dilution; Cell Signalling Technology, Danvers, MA, USA) for 1 h. Following six washes with TBS-T, the protein bands were detected with the Clarity Western ECL reagent from Bio-Rad. The band intensity was quantified by NIH ImageJ densitometric analysis. For quantification, specific phosphorylation was calculated as the ratio of phosphorylated AKT or mTOR signals to the total Akt or mTOR signal detected. Values of unstimulated samples were set to 1.0. The original immunoblots are provided in Supplementary data.
(Immunoblotting shows a protein as a band on a membrane.)

In series [5] the test system is Caspase-3. Nature of the series: Caspase-3 activity in 6-OHDA-treated SH-SY5Y cells. In kind it is cell-based, human. The settings on record: STAU 1 µM, positive control. How it is done:
Caspase-3 activity was assessed using “Caspase-3 fluorometric assay” (Sigma, St. Louis, MO, USA) with minor changes adapted by Silva et al.. The cells were treated with 6-OHDA (100 µM) for 6 h in the presence or absence of peptides. After this period, the culture medium was removed, and cells were rinsed with ice-cold PBS and collected by centrifugation at 3300×g for 5 min. The pellets were resuspended in lysis buffer, incubated for about 20 min on ice and finally centrifuged at 22,500×g, 4 °C, for 20 min. Cell lysates were processed following the manufacturer’s protocol, and fluorescence was read at wavelengths of 360 nm (excitation) and 460 nm (emission). Caspase-3 activity was calculated through the curve slope and presented as Δ fluorescence (a.u.)/mg of protein/min). Staurosporine (STAU, 1 µM) was used as positive control.

Series [6] concerns LPS-stimulated RAW 264.7 cells. Description: Nitric oxide production in LPS-stimulated RAW 264.7 cells (Griess). The settings on record: LPS 1 µg/mL. It is filed as cell-based, mouse. The procedure: The level of NO production was determined in RAW 264.7 cells. Briefly, after cells attachment, they were treated with LPS (Millipore Sigma, Darmstadt, Germany) at 1 µg/mL for 24 h, and then the peptides were added for an additional 24 h. After cells’ treatment, the medium was collected, and the accumulation of NO metabolite in the cell culture supernatant was measured using Griess reagent (1% sulfanilamide and 0.1% naphthylethylenediamine dihydrochloride; Sigma Aldrich), where 50 µL of the supernatant was mixed with 50 µL of Griess reagent (40 mg/mL) in a 96-well plate. After incubation at room temperature and darkness for 10 min, the absorbance was measured at 540 nm. Cells treated with LPS without samples were used as the positive control of the inflammatory response.

Series [7] deals with LPS-stimulated RAW 264.7 cells. Nature of the series: Intracellular ROS formation in LPS-stimulated RAW 264.7 cells. In kind it is cell-based, mouse. The settings on record: LPS 1 µg/mL. The procedure:
The cytotoxic and anti-inflammatory effects of peptides on RAW 264.7 cells were estimated using MTT assay. Cells were incubated with peptides (0.1–10 µM) for 24 h to assess their cytoprotective activity. In the anti-inflammatory model, RAW 264.7 cells were exposed to LPS (Millipore Sigma, Darmstadt, Germany) at 1 µg/mL in the absence/presence of peptide at non-toxic concentrations (0.1–10 µM). Then, the MTT reagent was added to wells, and cells were incubated for 1.5 h at 37 °C. After this time, MTT was removed, 100 µL DMSO was added, and the resulting absorbance was read in a microplate reader (Synergy 2 BioTek Microplate Reader, Winooski, VT, USA) at 570 nm.
as §1

As to `NCCc1cc(O)c(O)cc1O` [6-OHDA, 6-hydroxydopamine, reference compound], the “viable cells after 6-OHDA exposure” value in series [1] is listed as 48.63 ± 1.25 % of viable cells. For the same compound, the “increase of ROS levels compared with vehicle” value in series [2] is given as “around 80%”. Besides, the “increase of MMP depolarization compared to vehicle” value in series [3] turned out to be 114%. Further, the AKT phosphorylation entry in series [4] was “blocked”.
On to `CN[C@@H]1C[C@H]2O[C@@](C)([C@@H]1OC)n1c3ccccc3c3c4c(c5c6ccccc6n2c5c31)C(=O)NC4` [STAU, Staurosporine, reference compound], for which the “effect on Caspase-3 activity” value in series [5] is reported as “marked increase”.
For the compound “lipopolysaccharide [LPS, reference compound]”, the “NO levels compared to the unstimulated control” value in series [6] was “exceeded 330%”. Besides, the “ROS level compared to the control” value in series [7] is recorded as “increased almost twice”.
